Test system: isoproterenol induced myocardial infarction
Test: isoproterenol induced myocardial infarction rat model
Type: in vivo
Parameters: TNF-A: unit not given here
Conditions: rats, isoproterenol 90 mg/kg bwt. + treatment 138 mg/kg bwt. (total)

Compound | GOT | GPT | LDH | TNF-A
O=C(O)[C@H]1O[C@@H](Oc2cc3oc(-c4ccccc4)cc(=O)c3c(O)c2O)[C@H](O)[C@@H](O)[C@@H]1O [Biacalin, Baicalin] | 110.37 | 79.57 | 138.67 | 438.58
O=C(O[C@@H]1Cc2c(O)cc(O)cc2O[C@@H]1c1cc(O)c(O)c(O)c1)c1cc(O)c(O)c(O)c1 [EGCG, Epigallocatechin gallate] | 139.15 | 75.30 |  | 408.29
O=c1c(O)c(-c2ccc(O)c(O)c2)oc2cc(O)cc(O)c12 [Quercetin] | 103.33 | 90.47 | 121.00 | 411.70
